Results reported in article PMC12457078, “Inhibition of soluble epoxide hydrolase in endotoxin induced pig lung injury” (Frontiers in Pharmacology, 2025).
Where “and” joins values, the source holds several entries; their conditions need not be identical. Equal entries are not always repeated. Where two headings read alike, the source gives them in different places.

Experiment: AEPU blood concentrations in LPS-treated pigs
Assay type: in vivo, pig
Settings: for AEPU conc, In 10uL blood / AEPU conc, In analyte: listed as AEPU
Experimental: One animal served as a pharmacokinetic pilot, with arterial and venous catheters placed in a cut-down in the neck. The remaining 21 animals were used for the randomized study (Figure 1). After intubation and start of mechanical ventilation, a second auricular vein cannula was placed and infusion of either AEPU or placebo according to randomization was started. After 2 h of infusion of AEPU or placebo, an infusion of LPS was started. A bolus of 0.1 mg/kg was administered during 30 min after which the infusion rate was adjusted to 0.01 mg/kg/h. During the time between start of AEPU or placebo and LPS infusion, neck dissection was performed, exposing the v jugularis externa and carotid artery. A pulmonary artery introducer and an arterial cannula were placed in vein and artery respectively, and a pulmonary artery catheter introduced through the introducer and the tip placed in the correct position in the pulmonary artery placement guided by continuous invasive pressure monitoring or, when difficult, assisted by fluoroscopy. All surgical procedures were performed under sterile conditions.
AEPU was synthesized according to Kim et al. ([Kim et al., 2007]), delivered in 60 mg vials and dissolved in 30 mL pure ethanol as a co-solvent, of which either 20 mL was added to 980 mL of sodium chloride 9 mg/mL or 8 mL–392 mL sodium chloride, creating a solution of 0.04 mg/mL AEPU and 2% ethanol. The placebo infusion was prepared by adding either 20 mL of pure ethanol to 980 mL of sodium chloride 9 mg/mL or 8 mL of pure ethanol to 392 mL sodium chloride, creating a 2% ethanol solution. Each animal received an infusion of either 0.1 mg/kg/h AEPU or the corresponding volume of placebo solution.
All animals were monitored with pulse oximetry, heart rate, ECG, systemic arterial blood pressure (ABP), pulmonary arterial pressure (PAP), central venous pressure (CVP) temperature, tidal volumes, respiratory rate and end tidal carbon dioxide. At baseline, and at 3 h, 6 h and at the end of the experiment, pulmonary capillary wedge pressure (PCWP) was measured together with arterial and venous blood gas analyses, as well as cardiac output calculations. Routine chemistry, including creatinine, bilirubin, glucose, electrolytes were collected at baseline and at the end of the experiment (Vetscan VS2®, Abaxis, Griesheim, Germany). Blood samples for measurement of AEPU plasma concentrations, as well as oxylipins (i.e., EpETrEs and their DiHETrE corresponding diols as well as related compounds with other polyunsaturated fatty acid precursors), were collected at baseline, 6 h and at the end of the experiment. Oxylipin analysis was performed according to a previously published protocol ([Gouveia-Figueira and Nording, 2015]).

CCOCCOCCOCCCCCNC(=O)NC12CC3CC(CC(C3)C1)C2 [Compound 950]
950 in blood spots (6 h, individual pigs): 61 nM and 53 nM and 118 nM and 49 nM and 77 nM and 123 nM and 162 nM and 99 nM and 66 nM
950 in blood spots (9 h, individual pigs): 163 nM and 42 nM and 48 nM and 79 nM and 172 nM and 149 nM
concentration at 9 h (LPS start, average of pigs, read-out: 950 in blood spots, Average): 62 nM
950 in blood spots (LPS start, individual pigs): 51 nM and 47 nM and 84 nM and 48 nM and 63 nM and 96 nM and 53 nM and 65 nM and 50 nM
concentration at 6 h (pig, whole blood (blood spots), intravenous, 0.1 mg/kg/h, 6 h, average of pigs, read-out: 950 in blood spots, Average): 90 nM
concentration at 9 h (pig, whole blood (blood spots), intravenous, 0.1 mg/kg/h, 9 h, average of pigs, read-out: 950 in blood spots, Average): 109 nM
AEPU conc, In 10uL blood (sample _6, individual pigs): 64.4 ng/mL and 39.4 ng/mL and 26.3 ng/mL and 24.4 ng/mL and 20.9 ng/mL and 46.8 ng/mL and 19.5 ng/mL and 30.4 ng/mL and 48.8 ng/mL
AEPU conc, In analyte (sample _6, individual pigs): 12.9 ng/mL and 7.9 ng/mL and 5.3 ng/mL and 4.9 ng/mL and 4.2 ng/mL and 9.4 ng/mL and 3.9 ng/mL and 6.1 ng/mL and 9.8 ng/mL
AEPU conc, In 10uL blood (sample _12, individual pigs): 68.1 ng/mL and 58.9 ng/mL and 0.0 ng/mL and 64.5 ng/mL and 16.7 ng/mL and 19.0 ng/mL and 31.2 ng/mL
AEPU conc, In analyte (sample _12, individual pigs): 13.6 ng/mL and 11.8 ng/mL and 12.9 ng/mL and 3.3 ng/mL and 3.8 ng/mL and 6.2 ng/mL
AEPU conc, In 10uL blood (sample _BL, individual pigs): 21.0 ng/mL and 25.7 ng/mL and 19.7 ng/mL and 20.3 ng/mL and 18.6 ng/mL and 33.4 ng/mL and 19.2 ng/mL and 25.1 ng/mL and 38.0 ng/mL
AEPU conc, In analyte (sample _BL, individual pigs): 4.2 ng/mL and 5.1 ng/mL and 3.9 ng/mL and 4.1 ng/mL and 3.7 ng/mL and 6.7 ng/mL and 3.8 ng/mL and 5.0 ng/mL and 7.6 ng/mL
